From PMC6270595, “Synthesis and Cytotoxicity of Novel 10-Substituted Dihydroartemisinin Derivatives Containing N-Arylphenyl-ethenesulfonamide Groups” (Molecules, 2013)
Read-outs that look alike come from different tables or passages of the source.

Experiments:
[1] = system: WI-38 (human fetal lung fibroblasts); experiment: MTT cytotoxicity assay, normal cell line WI-38; type: cell-based; conditions: normal WI-38 cells, 50% cell growth inhibition after 72 h of drug exposure, read-out: IC50(μM) WI38
Procedure: (§1) The cytotoxic activities of target compounds were evaluated against HT-29 (human colon cancer), MDA-MB-231 (human breast cancer), U87MG (human glioblastoma), H460 (human lung cancer), A549 (non-small-cell lung adenocarcinoma), HL-60 (human leukemic) cancer cell lines and one normal cell line WI-38 (human fetal lung fibroblasts) together with references DHA and cisplatin by a MTT assay.
(§2) The cytotoxic activities of compounds 3a–h and 6a–j were evaluated with the HT-29, MDA-MB-231, U87MG, H460, A549, HL-60 cancer cell lines and one normal cell line, WI-38, by the standard MTT assay in vitro [20], with DHA as the positive control. The cell lines were cultured in minimum essential medium (MEM) supplement with 10% fetal bovine serum (FBS). Approximately 4 × 10^3 cells, suspended in MEM medium, were plated on to each well of a 96-well plate and incubated in 5% CO2 at 37 °C for 24 h. The test compounds at indicated final concentrations were added to the culture medium and the cell cultures were continued for 72 h. Fresh MTT was added to each well at a terminal concentration of 5 μg/mL and incubated with cells at 37 °C for 4 h. The formazan crystals were dissolved in 100 μL DMSO each well, and the absorbency at 492 nm (for absorbance of MTT formazan) and 630 nm (for the reference wavelength) was measured with the ELISA reader. All of the compounds were tested twice in each of the cell lines. The results expressed as IC50 (inhibitory concentration 50%) were the averages of two determinations and calculated using the Bacus Laboratories Incorporated Slide Scanner (Bliss) software.

[2] = system: HL-60 (human leukemic); experiment: MTT cytotoxicity assay, HL-60; type: cell-based; conditions: for IC50: HL-60 cells, 50% cell growth inhibition after 72 h of drug exposure, MTT
Procedure: as §1, §2

[3] = system: U87MG (human glioblastoma); experiment: MTT cytotoxicity assay, U87MG; type: cell-based; conditions: for IC50: U87MG cells, 50% cell growth inhibition after 72 h of drug exposure, MTT
Procedure: as §1, §2

[4] = system: H460 (human lung cancer); experiment: MTT cytotoxicity assay, H460; type: cell-based; conditions: for IC50: H460 cells, 50% cell growth inhibition after 72 h of drug exposure, MTT
Procedure: as §1, §2

[5] = system: MDA-MB-231 (human breast cancer); experiment: MTT cytotoxicity assay, MDA-MB-231; type: cell-based; conditions: MDA-MB-231 cells, 50% cell growth inhibition after 72 h of drug exposure
Procedure: as §1, §2

[6] = system: A549 (non-small-cell lung adenocarcinoma); experiment: MTT cytotoxicity assay, A549; type: cell-based, human; conditions: A549 cells, 50% cell growth inhibition after 72 h of drug exposure
Procedure: as §1, §2

[7] = system: HT-29 (human colon cancer); experiment: MTT cytotoxicity assay, HT-29; type: cell-based; conditions: HT-29 cells, 50% cell growth inhibition after 72 h of drug exposure, read-out: IC50(μM) HT29
Procedure: as §1, §2

N.N.[Cl][Pt][Cl] [Cisplatin, cisplatin, reference compound]
IC50 [1]: 51.2 µM | IC50 [2]: 9.28 µM | IC50 [3]: 8.21 µM | IC50 [4]: 7.55 µM | IC50 [5]: 6.82 µM | IC50 [6]: 4.31 µM | IC50 [7]: 10.3 µM

C[C@@H]1CC[C@H]2[C@@H](C)C(OCCOc3ccc(/C=C/S(=O)(=O)Nc4ccccc4)cc3)O[C@@H]3O[C@@]4(C)CC[C@@H]1[C@]32OO4 (stereo partly drawn) [Compound 3a, (E)-2-(4-(2-(10β-Dihydroartemisinoxy)ethoxy)phenyl)-N-phenylethenesulfonamide]
IC50 ([1]; Homo sapiens): 16.8 µM | melting point: 136 to 138 °C | IC50 ([2]; Homo sapiens): 1.25 µM | IC50 ([3]; Homo sapiens, U-87 MG): 3.97 µM | IC50 ([4]; Homo sapiens, NCI-H460): 5.38 µM | IC50 ([5]; Homo sapiens): 2 µM | IC50 ([6]; Homo sapiens): 2.16 µM | IC50 ([7]; Homo sapiens): 0.68 µM

C[C@@H]1CC[C@H]2[C@@H](C)C(OCCOc3ccc(/C=C/S(=O)(=O)Nc4cccc(Cl)c4)cc3)O[C@@H]3O[C@@]4(C)CC[C@@H]1[C@]32OO4 (stereo partly drawn) [Compound 3b, (E)-2-(4-(2-(10β-Dihydroartemisinoxy)ethoxy)phenyl)-N-(3-chlorophenyl)ethenesulfonamide]
IC50 ([1]; Homo sapiens): 23.9 µM | melting point: 137 to 138 °C | IC50 ([2]; Homo sapiens): 0.75 µM | IC50 ([3]; Homo sapiens, U-87 MG): 3.51 µM | IC50 ([4]; Homo sapiens, NCI-H460): 7.32 µM | IC50 ([5]; Homo sapiens): 1.61 µM | IC50 ([6]; Homo sapiens): 4.48 µM | IC50 ([7]; Homo sapiens): 0.78 µM

C[C@@H]1CC[C@H]2[C@@H](C)C(OCCOc3ccc(/C=C/S(=O)(=O)Nc4ccc(OC(F)(F)F)cc4)cc3)O[C@@H]3O[C@@]4(C)CC[C@@H]1[C@]32OO4 (stereo partly drawn) [Compound 3c, (E)-2-(4-(2-(10β-Dihydroartemisinoxy)ethoxy)phenyl)-N-(4-trifluoromethoxyphenyl)ethenesulfonamide]
IC50 ([1]; Homo sapiens): 37.5 µM | activity fold higher than that of benzamide analog 6c ([2]; HL-60, versus 6c): 2 fold | IC50 ([2]; Homo sapiens): 0.05 µM | selectivity index (IC50 normal cell/IC50 cancer cell) ([2]; WI-38 normal cells versus HL-60): 750 | IC50 ([3]; Homo sapiens, U-87 MG): 1.59 µM | activity fold higher than that of benzamide analog 6c ([3]; U87MG, versus 6c): 2 fold | activity fold higher than that of benzamide analog 6c ([4]; H460, versus 6c): 3 fold | IC50 ([4]; Homo sapiens, NCI-H460): 0.97 µM | IC50 ([5]; Homo sapiens): 0.39 µM | IC50 ([6]; Homo sapiens): 2.11 µM | IC50 ([7]; Homo sapiens): 0.2 µM

Cc1ccc(F)c(NS(=O)(=O)/C=C/c2ccc(OCCOC3O[C@@H]4O[C@@]5(C)CC[C@H]6[C@H](C)CC[C@@H]([C@H]3C)[C@@]46OO5)cc2)c1 (stereo partly drawn) [Compound 3d, (E)-2-(4-(2-(10β-Dihydroartemisinoxy)ethoxy)phenyl)-N-(2-fluoro-5-methylphenyl)ethenesulfonamide]
IC50 ([1]; Homo sapiens): 20.5 µM | melting point: 138 to 140 °C | IC50 ([2]; Homo sapiens): 0.84 µM | IC50 ([3]; Homo sapiens, U-87 MG): 5.71 µM | IC50 ([4]; Homo sapiens, NCI-H460): 4.29 µM | IC50 ([5]; Homo sapiens): 1.27 µM | IC50 ([6]; Homo sapiens): 3.64 µM | IC50 ([7]; Homo sapiens): 1.78 µM

Cc1ccccc1NS(=O)(=O)/C=C/c1ccc(OCCOC2O[C@@H]3O[C@@]4(C)CC[C@H]5[C@H](C)CC[C@@H]([C@H]2C)[C@@]35OO4)cc1 (stereo partly drawn) [Compound 3e, (E)-2-(4-(2-(10β-Dihydroartemisinoxy)ethoxy)phenyl)-N-(2-methylphenyl)ethenesulfonamide]
IC50 ([1]; Homo sapiens): 16.4 µM | melting point: 136 to 138 °C | IC50 ([2]; Homo sapiens): 2.37 µM | IC50 ([3]; Homo sapiens, U-87 MG): 2.73 µM | IC50 ([4]; Homo sapiens, NCI-H460): 1.58 µM | IC50 ([5]; Homo sapiens): 1.64 µM | IC50 ([6]; Homo sapiens): 7.32 µM | IC50 ([7]; Homo sapiens): 0.86 µM

C[C@@H]1CC[C@H]2[C@@H](C)C(OCCOc3ccc(/C=C/S(=O)(=O)Nc4ccc(Cl)cc4)cc3)O[C@@H]3O[C@@]4(C)CC[C@@H]1[C@]32OO4 (stereo partly drawn) [Compound 3f, (E)-2-(4-(2-(10β-Dihydroartemisinoxy)ethoxy)phenyl)-N-(4-chlorophenyl)ethenesulfonamide]
IC50 ([1]; Homo sapiens): 19.9 µM | melting point: 138 to 141 °C | IC50 ([2]; Homo sapiens): 0.08 µM | IC50 ([3]; Homo sapiens, U-87 MG): 0.79 µM | IC50 ([4]; Homo sapiens, NCI-H460): 1.41 µM | IC50 ([5]; Homo sapiens): 1.04 µM | IC50 ([6]; Homo sapiens): 3.52 µM | IC50 ([7]; Homo sapiens): 0.42 µM

C[C@@H]1CC[C@H]2[C@@H](C)C(OCCOc3ccc(/C=C/S(=O)(=O)Nc4ccccc4Cl)cc3)O[C@@H]3O[C@@]4(C)CC[C@@H]1[C@]32OO4 (stereo partly drawn) [Compound 3g, (E)-2-(4-(2-(10β-Dihydroartemisinoxy)ethoxy)phenyl)-N-(2-chlorophenyl)ethenesulfonamide]
IC50 ([1]; Homo sapiens): 16.3 µM | melting point: 141 to 143 °C | IC50 ([2]; Homo sapiens): 0.17 µM | IC50 ([3]; Homo sapiens, U-87 MG): 1.78 µM | IC50 ([4]; Homo sapiens, NCI-H460): 2.53 µM | IC50 ([5]; Homo sapiens): 0.93 µM | IC50 ([6]; Homo sapiens): 3.05 µM | IC50 ([7]; Homo sapiens): 0.55 µM

C[C@@H]1CC[C@H]2[C@@H](C)C(OCCOc3ccc(/C=C/S(=O)(=O)Nc4c(Cl)cccc4Cl)cc3)O[C@@H]3O[C@@]4(C)CC[C@@H]1[C@]32OO4 (stereo partly drawn) [Compound 3h, (E)-2-(4-(2-(10β-Dihydroartemisinoxy)ethoxy)phenyl)-N-(2,6-dichlorophenyl)ethenesulfonamide]
IC50 ([1]; Homo sapiens): 20.7 µM | melting point: 144 to 146 °C | IC50 ([2]; Homo sapiens): 0.14 µM | IC50 ([3]; Homo sapiens, U-87 MG): 2.51 µM | IC50 ([4]; Homo sapiens, NCI-H460): 1.28 µM | IC50 ([5]; Homo sapiens): 1.07 µM | IC50 ([6]; Homo sapiens): 4.33 µM | IC50 ([7]; Homo sapiens): 0.49 µM

C[C@@H]1CC[C@H]2[C@@H](C)C(OCCNC(=O)c3ccc(COc4ccc(/C=C/S(=O)(=O)Nc5ccccc5)cc4)cc3)O[C@@H]3O[C@@]4(C)CC[C@@H]1[C@]32OO4 (stereo partly drawn) [Compound 6a, (E)-N-(2-(10β-Dihydroartemisinoxy)ethyl)-4((4-(2-(N-phenylsulfamoyl)vinyl)phenoxy)methyl)benzamide]
IC50 ([1]; Homo sapiens): 20 µM | melting point: 142 to 145 °C | IC50 ([2]; Homo sapiens): 2.41 µM | IC50 ([3]; Homo sapiens, U-87 MG): 6.47 µM | IC50 ([4]; Homo sapiens, NCI-H460): 5.28 µM | IC50 ([5]; Homo sapiens): 2.26 µM | IC50 ([6]; Homo sapiens): 3.21 µM | IC50 ([7]; Homo sapiens): 0.98 µM

C[C@@H]1CC[C@H]2[C@@H](C)C(OCCNC(=O)c3ccc(COc4ccc(/C=C/S(=O)(=O)Nc5ccc(OC(F)(F)F)cc5)cc4)cc3)O[C@@H]3O[C@@]4(C)CC[C@@H]1[C@]32OO4 (stereo partly drawn) [Compound 6c, (E)-N-(2-(10β-Dihydroartemisinoxy)ethyl)-4((4-(2-(N-(4-trifluoromethoxyphenyl)sulfamoyl)vinyl)phenoxy)methyl)benzamide]
IC50 ([1]; Homo sapiens): 28.2 µM | IC50 ([2]; Homo sapiens): 0.09 µM | IC50 ([3]; Homo sapiens, U-87 MG): 3.71 µM | IC50 ([4]; Homo sapiens, NCI-H460): 2.7 µM | IC50 ([5]; Homo sapiens): 0.49 µM | IC50 ([6]; Homo sapiens): 1.57 µM | IC50 ([7]; Homo sapiens): 0.29 µM

C[C@H]1[C@@H](O)O[C@@H]2O[C@@]3(C)CC[C@H]4[C@H](C)CC[C@@H]1[C@@]24OO3 [DHA, dihydroartemisinin]
IC50 ([1]; Homo sapiens): > 100 µM | IC50 ([2]; Homo sapiens): 5.29 µM | IC50 ([3]; Homo sapiens, U-87 MG): 15.8 µM | IC50 ([4]; Homo sapiens, NCI-H460): 12.4 µM | IC50 ([5]; Homo sapiens): 9.8 µM | IC50 ([6]; Homo sapiens): 10.1 µM | IC50 ([7]; Homo sapiens): 5.6 µM
